Results reported in paper PMC12582325 (Proceedings of the National Academy of Sciences of the …, 2025).
“And” between values parts separate entries of the source, which are not always exact repeats. Equal values may be shown once. Read-outs that look alike come from different tables or passages of the source. Where a SMILES comes first, the peptide text is derived from it.

Key:
[1] = tested on: F. oxysporum infection of tomato plants; assay: Tomato plant mortality assay; assay type: in vivo, Fusarium oxysporum / Solanum lycopersicum; details: groups of 10 plants; 3.2 × 10^6 microconidia/mL supplemented with pheromone once at inoculation; 50 d; Kaplan-Meier, log-rank
Procedure: Tomato plant infection assays were performed as described ([61]) with F. oxysporum microconidia and treatment inoculation as described above. Plants were transferred to a growth and plant survival was recorded daily for 50 d. Plant death was diagnosed as a complete collapse of the stem, without any green parts left. The Kaplan–Meier test was used to assess statistical significance of differences in survival among groups using the log-rank test in GraphPad Prism. The infection experiment was conducted two times with 10 plants per condition.

Bc.Ste2 = assay type: cell-based, Botrytis cinerea
Bb.Ste2 [2] = assay type: cell-based, Beauveria bassiana; details: for Diploid frequency (%): 20 h coculture; for diploid frequency (%) / average (diploid colonies): GPCR strain GEN47 HIS; for average (diploid colonies): dilution 500, mean of Rep1-3
Hj Ste2 GPCR (Hj.Hpr2) = assay type: cell-based, Hypocrea jecorina
[3] = tested on: F. oxysporum on tomato roots; assay: Tomato root inoculation and fluorescence microscopy of infected roots; assay type: in vivo, Fusarium oxysporum / Solanum lycopersicum; details: exogenous addition of pheromone to microconidia; 3 d after inoculation; fluorescence microscopy
Bb.Ste2 [4] = assay type: cell-based, Beauveria bassiana
Fo.Ste2 = assay type: cell-based, Fusarium oxysporum
Fg.Ste2 [5] = assay type: cell-based, Fusarium graminearum; details: YPL1 library cocultured with Fg.Ste2 strain GEN87, 20 h, 2 d diploid enrichment, NextSeq 500
Fg.Ste2 [6] = assay type: cell-based, Fusarium graminearum
[7] = tested on: F. oxysporum microconidia; assay: Germination of F. oxysporum microconidia; assay type: cell-based, Fusarium oxysporum f. sp. lycopersici 4287; design: Germination of F. oxysporum microconidia (data of Sup.Fig.10): unit not given here; details: for Germination of F. oxysporum microconidia (data of Sup.Fig.10): 400 μM pheromone, 13 h, at least 300 spores counted
Procedure: For F. oxysporum microconidia production, the strain was grown for 3 to 4 d in liquid potato dextrose broth (PDB) at 28 °C and 170 rpm. Germination media ([10]) was used for assessing the spore germination. RE was prepared by removing 2-wk-old tomato plants from vermiculite and washing the roots to remove any adhering substrates ([11]).
Supplementary Figure 10. Germination of F. oxysporum microconidia after 13 h of incubation in Germination Media at a cell density of […] microconidia/mL. The assay was performed with 400 μM of pheromone. All points represent the average of three biological replicates in which at least 300 spores were counted. Statistical significance was determined through one-way analysis of variance (ANOVA) with Dunnett’s multiple comparisons (✱p ≤ 0.05).

C[C@@H](O)[C@H](NC(=O)[C@H](CS)NC(=O)[C@@H](N)Cc1c[nH]c2ccccc12)C(=O)N[C@@H](Cc1c[nH]c2ccccc12)C(=O)N[C@@H](CCCNC(=N)N)C(=O)NCC(=O)N[C@@H](CCC(N)=O)C(=O)N1CCC[C@H]1C(=O)N[C@@H](CS)C(=O)N[C@@H](Cc1c[nH]c2ccccc12)C(=O)O [Fo] (H-WCTWRGQPCW-OH; N-terminus assumed)
Tomato plant survival [1]: no significant difference in plant survival
Diploid frequency (%) (Bc.Ste2): 0.1% and 0.3%
average (diploid colonies) (Bc.Ste2): 0.67 and 1
diploid frequency (%) (Bc.Ste2): 0.19% and 0.28%
Diploid frequency (%) (Bb.Ste2 [2]; Fig. 1D mating matrix, pheromone secreted by MATa strain, GPCR in MATα strain, deep well plate, three technical plating replicates): 0.7%
Diploid frequency (%) (Bb.Ste2 [2]; Fig. 1F validation in culture tubes, secreted pheromone, three biological and three technical replicates): 4.9%
diploid frequency (%) (Bb.Ste2 [2]; co-culture replicate 1): 4.61%
average (diploid colonies) (Bb.Ste2 [2]; co-culture replicate 1): 22
diploid frequency (%) (Bb.Ste2 [2]; co-culture replicate 2): 3.74%
average (diploid colonies) (Bb.Ste2 [2]; co-culture replicate 2): 17.67
diploid frequency (%) (Bb.Ste2 [2]; co-culture replicate 3): 6.44%
average (diploid colonies) (Bb.Ste2 [2]; co-culture replicate 3): 31.33
Diploid frequency (%) (Hj Ste2 GPCR (Hj.Hpr2)): 0.0%
Adhesion of F. oxysporum germ tubes among themselves or to tomato roots [3]: increased adhesion
Activation of Bb.Ste2 biosensor, in words (Bb.Ste2 [4]): higher EC50 values
EC50 fold higher than that of the Bb pheromone (Bb.Ste2 [4]): 3,910 fold
Fold change yEGFP (Bb.Ste2 [4]): 178
Hillslope (Bb.Ste2 [4]): 1.951
half-maximal effective concentration (EC50) (Bb.Ste2 [4]): 0.958 µM
logEC50 (Bb.Ste2 [4]): -6.019
Sup.Fig.7A - Fo, group mean (Fo.Ste2): 0.3879 and 0.4515
average (diploid colonies) (Fo.Ste2): 68 and 129.67 and 80.33
diploid frequency (%) (Fo.Ste2): 19.26% and 31.27% and 21.99%
diploid frequency (%), Plates, Fo (Fo.Ste2): 1.52% and 3.25% and 5.49%
diploid frequency (%), Plates, Fo (Fo.Ste2; pH=6): 1.9% and 1.65% and 1.4%
diploid frequency (%), Plates, Fo (Fo.Ste2; pH=7): 1.27% and 1.02% and 0.39%
Sup.Fig.7A - Fo, group mean (Fo.Ste2; ph=6): 0.422
Sup.Fig.7A - Fo, group mean (Fo.Ste2; ph=7): 0.4837
Enrichment after mating, reads per million minus library before coculture (Fg.Ste2 [5]): > 340,000 RPM
Fold change yEGFP (Fg.Ste2 [6]; Fg.Ste2 biosensor CPK366, 10 μM synthetic alpha pheromone, normalized to yEGFP background (receptor without pheromone), four biological replicates, Fig. 1E): 187
Activation of Fg.Ste2 biosensor, in words (Fg.Ste2 [6]; chemically synthesized pheromone): higher EC50 values
Germination of F. oxysporum microconidia (data of Sup.Fig.10) ([7]; biological replicate 1 (first line)): 23,4
Germination of F. oxysporum microconidia (data of Sup.Fig.10) ([7]; biological replicate 2 (second line)): 23,3
Germination of F. oxysporum microconidia (data of Sup.Fig.10) ([7]; biological replicate 3 (third line)): 13,3
Mean Diff, Solvent vs. peptide ([7]; Sup.Fig.10, Dunnett's multiple comparisons test, n = 3): 23,77
Mean 2 (peptide), germination ([7]; Sup.Fig.10, Solvent control mean 43,77, mean of n = 3): 20,00
Effect on F. oxysporum microconidia germination, in words ([7]; exogenous addition of 400 μM peptide, 13 h in Germination Media, 3.2 x 106 microconidia/mL): significant reduction
